Values after ≈ are worked out from the molar mass of the structure shown. Values joined by “and” are separate entries in the source; they are usually repeats but may differ in a detail not shown here. Equal entries are not always repeated. Where two headings read alike, the source gives them in different places.
Columns and labels:
[1] = test system: biofilm of MRSA; test: Combination treatment: dispersal of MRSA biofilm; type: cell-based, methicillin-resistant Staphylococcus aureus; settings: CZ-7 at […] mixed with chlorhexidine gluconate at […]; biofilm of 10^11 cells; within one hour
[2] = test system: A. baumannii biofilm; test: MBEC, MBEC Inoculation Tray by Innovotech (to 10^2 CFU/peg in 24 hours); type: cell-based, Acinetobacter baumannii; settings: Table 4
Excerpt: To determine the MBEC of each polyamine compound, the MBEC Inoculation Tray by Innovotech, formerly known as the Calgary biofilm device, was used. Within this device, biofilms grow on the surface of polystyrene pegs, 96 of which are attached to a lid. These pegs are inserted into a flat bottom 96-well plate. In this instance, the MBEC of a molecule was defined as the concentration of compound (in μg/mL) required to reduce 10^5 or 10^6 CFU/peg (biofilm levels varied by isolate) to 10^2 CFU/peg in a 24-hour period.
Following the manufacturer's guidelines, biofilms were grown on the surface of each peg by first making a 0.5 McFarland of each isolate. The 0.5 McFarland was diluted 1:100 in CAMHB. Into each well of a flat bottom 96-well plate, 150 μL of broth were pipetted. The plate was shaken at 100 rpm for 24 hours (P. aeruginosa and A. baumannii) or 48 hours (MRSA). The pegs were then placed into a separate flat bottom 96-well plate for 10 seconds with 200 μL of phosphate buffered saline (PBS) in each well to remove nonadherent cells. The lid was then placed into a 96-well plate that contained varying concentrations of antimicrobial with 200 μL per well. The plate was incubated for 24 hours at 37° C. after which time 100 μL of broth were plated on TSA. TSA plates were incubated 24 hours at 37° C. and the number of CFU counted to calculate the CFU/peg. In this instance, the MBEC was defined as the concentration of antimicrobial required to reduce 10^5 or 10^6 CFU/peg to 10^2 CFU/peg in a 24 hour period.
To determine the MBEC, the MBEC Inoculation Tray by Innovotech, formerly known as the Calgary biofilm device, is used. Within this device, biofilms grow on the surface of polystyrene pegs, 96 of which are attached to a lid. These pegs are inserted into a flat bottom 96-well plate. In this instance, the MBEC of a molecule is defined as the concentration of compound required to reduce approximately 10^6 CFU/peg to approximately 10^2 CFU/peg in a 24-hour period.
Following the manufacturer's guidelines, biofilms are grown on the surface of each peg by first making a 0.5 McFarland of A. baumannii. The 0.5 McFarland is diluted 1:100 in CAMHB broth. Into each well of a flat bottom 96-well plate, 150 μL of broth is pipetted. The plate is shaken at 100 rpm for 24 hours. The pegs are placed into a separate flat bottom 96-well plate for 10 seconds with 200 μL of phosphate buffered saline (PBS) in each well to remove nonadherent cells. The lid is placed into a 96-well plate that contains varying concentrations of antimicrobial with 200 μL of broth per well. The plate is incubated for 24 hours at 37° C. after which time 100 μL of broth is plated on TSA. TSA plates is incubated 24 hours at 37° C. and the number of CFU counted to calculate the CFU/peg.
MBEC data were collected using the MBEC Inoculation Tray by Innovotech. The MBEC was defined in these preliminary results as the concentration of antimicrobial required to reduce 10^5 or 10^6 CFU/peg to 10^2 CFU/peg in a 24-hour period.

[3] = test system: MRSA biofilm; test: EBEC, high number biofilms on PEEK membranes (10^9 to 10^2 CFU/PEEK membrane in 24 hours); type: cell-based, methicillin-resistant Staphylococcus aureus; settings: for EBEC, MRSA: Table 4
Protocol: (§1) In addition to determining the MIC and the MBEC of polyamine compounds against planktonic bacteria and low number biofilms, our group wanted to determine the efficacy of polyamine compounds against high number biofilms. To do so, biofilms were grown on the surface of polyetheretherketone (PEEK) membranes using a membrane biofilm reactor. This reactor is similar to the CDC biofilm reactor, but rather than growing biofilms on coupon surfaces, the reactor was modified to hold PEEK membranes. In short, to grow biofilms within this system, 500 mL of brain heart infusion (BHI) broth were inoculated with 1 mL of a 0.5 McFarland. The reactor was placed on a hot plate set at 34° C. and the bacteria were grown under batch conditions for 24 hours. Following this protocol, biofilms typically grow to 10^9 CFU/PEEK membrane. […] A solution of 10% BHI was then flowed through the reactor at a rate of 6.94 mL/min for an additional 24 hours. PEEK membranes were then removed and placed into 2 mL of CAMHB that contained a desired concentration of polyamine compound or antibiotic. The EBEC was defined as the concentration of antimicrobial required to reduce a biofilm from approximately 10^9 CFU/PEEK membrane to approximately 10^2 CFU/PEEK membrane in a 24-hour period.
(§2) In addition to determining the MIC and the MBEC of compounds against planktonic bacteria and low number biofilms, the efficacy of the compounds of the invention against high number biofilms is determined. To do so, biofilms are grown on the surface of PEEK membranes using a membrane biofilm reactor (Williams, D. L., Haymond, B. S. & Bloebaum, R. D. Use of delrin plastic in a modified CDC biofilm reactor. Res J Microbiol 6, 425-429 (2011); Williams, D. L., Woodbury, K. L., Haymond, B. S., Parker, A. E. & Bloebaum, R. D. A modified CDC biofilm reactor to produce mature biofilms on the surface of PEEK membranes for an in vivo animal model application. Curr Microbiol 62, 1657-1663 (2011); Williams, D. L. et al., In Vivo Efficacy of a Silicone—Cationic Steroid Antimicrobial Coating to Prevent Implant-Related Infection. Biomaterials 33, 8641-8656 (2012); Williams, D. L. et al., Experimental model of biofilm implant-related osteomyelitis to test combination biomaterials using biofilms as initial inocula. J Biomed Mat Res A 100, 1888-1900 (2012)). This reactor is similar to the CDC biofilm reactor, but rather than growing biofilms on coupon surfaces, the reactor was modified to hold PEEK membranes. In short, to grow biofilms within this system, 500 mL of brain heart infusion (BHI) broth is inoculated with 1 mL of a 0.5 McFarland. The reactor is placed on a hot plate set at 34° C. and the bacteria grown under batch conditions for 24 hours. A solution of 10% BHI will then be flowed through the reactor at a rate of 6.94 mL/min for an additional 24 hours. Following this protocol, biofilms typically grow to 10^9 CFU/PEEK membrane. PEEK membranes is removed and placed into 2 mL of CAMHB that contain a desired concentration of the test compound. The EBEC is defined as the concentration of antimicrobial required to reduce a biofilm from approximately 10^9 CFU/PEEK membrane to approximately 10^2 CFU/PEEK membrane in a 24-hour period.
EBEC data were collected to determine the efficacy of CZ-52, CZ-58 and traditional antibiotics against high number biofilms containing approximately 10^9 CFU grown on the surface of a polyetheretherketone (PEEK) membrane.

[4] = test system: A. baumannii biofilm; test: as above; type: cell-based, Acinetobacter baumannii; settings: Table 4
Protocol: as §1, §2
EBEC data were collected to determine the efficacy of CZ-52, CZ-58 and traditional antibiotics against high number biofilms containing approximately 10^9 CFU grown on the surface of a polyetheretherketone (PEEK) membrane. […] In contrast, at 250 μg/mL CZ-52 was able to reduce MRSA biofilms by greater than 7 log10 units in a 24-hour period. Although the MIC of CZ-58 was lower against MRSA compared to A. baumannii, CZ-58 had greater activity against biofilms of A. baumannii than against MRSA biofilms in the EBEC assay. […] Although the MIC of CZ-58 was “high” compared to MICs of traditional antibiotics, the efficacy against biofilms was promising.

[5] = test system: MRSA biofilm; test: MBEC, MBEC Inoculation Tray by Innovotech (to 10^2 CFU/peg in 24 hours); type: cell-based, methicillin-resistant Staphylococcus aureus; settings: Table 4
[6] = test system: MRSA biofilm; test: EBEC on PEEK membranes, 100% eradication (Example 2); type: cell-based, methicillin-resistant Staphylococcus aureus; settings: PEEK membrane, eradicate all detectable amounts (100%)
Protocol: The fourth test that was performed was the effective biofilm eradication concentration (EBEC). To determine the EBEC, biofilms of MRSA and P. aeruginosa ATCC 27853 were grown on the surface of PEEK membranes using a previously established protocol. Briefly, 500 mL of brain heart infusion (BHI) broth were inoculated with 10^5 cells/mL of MRSA or P. aeruginosa. BHI broth was placed into a membrane biofilm reactor and placed on a hot plate set at 34° C. for 24 hours with a stir bar rotating at 130 rpm. Following the initial 24-hour growth period, a 10% BHI broth solution was flowed through the reactor at a rate of 6.944 mL/min for another 24 hours. After 48 hours of growth, each PEEK membrane had biofilm growth on it. In this experiment, there were ˜2×10^11 cells of MRSA per PEEK membrane and −2×10^10 cells of P. aeruginosa per PEEK membrane. The EBEC was defined as the concentration of the compound that was required to eradicate all detectable amounts (100%) of bacteria within the biofilms.

[7] = test system: MRSA; test: MIC in CAMHB, 96-well plate (10^5 to 10^2 CFU/mL in 24 hours); type: cell-based, methicillin-resistant Staphylococcus aureus; settings: Table 4
Protocol: To determine the MIC of polyamine compounds, the protocol described herein was used.
In brief, a 0.5 McFarland of each bacterial isolate was made. A 0.5 McFarland is a measure of turbidity in a liquid sample that contains approximately 1×10̂^8 CFU/mL. The 0.5 McFarland standard was diluted in cation adjusted Mueller Hinton Broth (CAMHB), and […], of broth were added to a well of a 96-well plate. In addition, 50 μL of CAMHB that contained a desired concentration of antimicrobial were also added to the well for a final volume of 100 and a final concentration of approximately 5×10^4 CFU/well (which equated to approximately 5×10^5 CFU/mL). Each well contained a desired amount of polyamine compound in order to experimentally determine the MIC. Each 96-well plate was incubated at 37° C. for 24 hours. The contents of each well were plated on tryptic soy agar (TSA). TSA plates were incubated for 37° C. for 24 hours after which the number of CFU were counted and used to calculate the CFU/mL that remained after exposure to varying concentrations of compound. This procedure was repeated n=8 times for each concentration of antimicrobial. […]

[8] = test system: MRSA biofilm; test: MBEC assay (Calgary Biofilm Device), 100% eradication (Example 2); type: cell-based, methicillin-resistant Staphylococcus aureus; settings: eradicate 100% of detectable biofilm
Protocol: In addition to determining the MIC, the minimum biofilm eradication concentration (MBEC) of PBC-51 was also determined. The MBEC was determined using the MBEC assay, formerly known as the Calgary Biofilm Device, developed by Innovotech. In this instance, the MBEC was defined as the amount of antimicrobial required to eradicate 100% of detectable biofilm after being grown in the MBEC device. To grow the biofilms within this device, 150 μL of solution containing a concentration of 10^5 cells/mL were inoculated into each well of a 96-well plate. A lid containing 96 pegs was placed onto the plate and incubated for 24 hours at 37° C. while being shaken at 110 rpm. Biofilms developed on the surface of the polystyrene pegs within the 96-well plate. After 24 hours, each peg contained between 10^5 and 10^6 cells in well-established biofilms. The lid with pegs was transferred to a 96-well plate that contained 200 μL of varying concentrations of the compound and was incubated at 37° C. for an additional 24 hours. The plate was then sonicated, and the biofilms quantified using a 10-fold dilution series to determine the MBEC.

Row | SMILES | dispersal of MRSA biofilm [1] | MBEC, A. baumannii [2] | EBEC, MRSA [3] | EBEC, A. baumannii [4] | MBEC, MRSA [5] | EBEC [6] | reduction of MRSA biofilms [3] | reduction of MRSA biofilms ([3]; at 25,000 μg/mL) | MIC, MRSA [7] | MBEC [8]
1 | NCCCNCCCNCc1ccccc1 [CZ-7, benzylnorspermidine] | significant dispersal | > 500 μg/mL and > 2,259 μM | > 5,000 μg/mL and > 22,590 μM | > 10,000 μg/mL and > 45,180 μM | > 500 μg/mL and > 2,259 μM |  |  |  |  | 
2 | CN[C@H](CC(C)C)C(=O)N[C@H]1C(=O)N[C@@H](CC(N)=O)C(=O)N[C@H]2C(=O)N[C@H]3C(=O)N[C@H](C(=O)N[C@H](C(=O)O)c4cc(O)cc(O)c4-c4cc3ccc4O)[C@H](O)c3ccc(c(Cl)c3)Oc3cc2cc(c3O[C@@H]2O[C@H](CO)[C@@H](O)[C@H](O)[C@H]2O[C@H]2C[C@](C)(N)[C@H](O)[C@H](C)O2)Oc2ccc(cc2Cl)[C@H]1O [Vancomycin, reference compound] |  |  | > 25,000 μg/mL |  | > 500 μg/mL and > 345 μM | > 20,000 μg/mL and > 13,460 μM | < 1 log10 unit | < 1 log10 unit | 10 µg/mL (≈ 6.9 µM) | > 500 μg/mL and > 336.50 μM

From US20150274639A1, “METHODS OF USE FOR COMPOSITIONS COMPRISING A BIOCIDAL POLYAMINE” (Curza Global, LLC, priority 2013, published 2015)
